Assay results from patent US10995073B2 (CANCER RESEARCH TECHNOLOGY LIMITED, priority 2014, dated 2021).

Biological target: Human Full Length PARG (Homo sapiens (Human), UniProt Q86W56)
Assay: PARG assay (in vitro enzyme, TR-FRET)
Settings: PARG biochemical activity; read-out: PARG_EC50_ENZYME
Description: PARG In vitro assays were conducted in a total volume of 15 ul in a standard 384 well format. 5 ul of Human Full Length PARG (Produced internally by Astra Zeneca), used at a final reaction concentration of […], was added to 5 ul of Ribosylated PARP substrate (also produced internally by Astra Zeneca) at final reaction concentration of 4.5 nM in assay buffer (50 mM Tris pH7.4, 0.1 mg/ml BSA, 3 mM EDTA, 0.4 mM EGTA, 1 mM DTT, 0.01% Tween 20, 50 mM KCl). The reaction was incubated at room temperature for 10 minutes and then 5 ul detection reagent was added. Detection Reagent consists of 42 nM MAb Anti-6HIS XL665 (CisBio: 61 HISXLB) and 2.25 nM Streptavidin Europium Cryptate (CisBio: 610SAKLB), both at 3× working stock concentrations (final concentrations of 14 nM and 0.75 nM respectively), in a detection buffer of 50 mM Tris pH7.4, BSA at 0.1 mg/ml and KF at 100 mM. Following incubation at room temperature for 60 minutes in the dark, TR-FRET signal was measured at Ex 340 and Em 665 and Em 620. A ratio was calculated as Em665/EM620x104 for each well and used to calculate percent inhibition for test compounds.

Sequence of Human Full Length PARG (Q86W56 whole entry): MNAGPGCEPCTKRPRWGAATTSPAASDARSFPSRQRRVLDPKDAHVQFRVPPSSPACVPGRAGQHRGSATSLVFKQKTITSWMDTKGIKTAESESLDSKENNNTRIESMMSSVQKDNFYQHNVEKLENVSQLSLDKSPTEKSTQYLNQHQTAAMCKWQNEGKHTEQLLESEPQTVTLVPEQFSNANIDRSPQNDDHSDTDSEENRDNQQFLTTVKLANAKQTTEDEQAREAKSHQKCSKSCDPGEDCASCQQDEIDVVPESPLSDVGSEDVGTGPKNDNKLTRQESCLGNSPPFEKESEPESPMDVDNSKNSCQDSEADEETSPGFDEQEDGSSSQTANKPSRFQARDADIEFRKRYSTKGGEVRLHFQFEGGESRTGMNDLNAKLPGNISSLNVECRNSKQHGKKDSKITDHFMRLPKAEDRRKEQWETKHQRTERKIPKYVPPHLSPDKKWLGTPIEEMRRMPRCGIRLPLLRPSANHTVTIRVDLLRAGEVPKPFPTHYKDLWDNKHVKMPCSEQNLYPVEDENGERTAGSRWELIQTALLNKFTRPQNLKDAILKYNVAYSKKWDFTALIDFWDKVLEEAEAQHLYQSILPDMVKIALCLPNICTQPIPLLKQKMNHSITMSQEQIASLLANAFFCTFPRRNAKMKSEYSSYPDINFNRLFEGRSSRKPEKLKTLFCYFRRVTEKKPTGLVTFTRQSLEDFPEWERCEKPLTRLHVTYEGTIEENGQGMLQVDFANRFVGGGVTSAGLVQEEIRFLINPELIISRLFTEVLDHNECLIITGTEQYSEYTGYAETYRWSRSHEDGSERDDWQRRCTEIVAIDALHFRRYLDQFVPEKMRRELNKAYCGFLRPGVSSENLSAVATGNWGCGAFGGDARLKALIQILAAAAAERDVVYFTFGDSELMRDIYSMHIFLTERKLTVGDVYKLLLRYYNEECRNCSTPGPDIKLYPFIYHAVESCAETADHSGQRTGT

Row | SMILES | EC50 [µM]
1 | Cn1c(=O)n(-c2nnc(N)s2)c2cc(S(=O)(=O)NC3(C)CC3)ccc21 [Example 81, 3-(5-Amino-1,3,4-thiadiazol-2-yl)-1-methyl-N-(1-methylcyclopropyl)-2-oxo-benzimidazole-5-sulfonamide] | 1.55
2 | Cc1nsc(-n2c(=O)n(C)c3ccc(S(=O)(=O)NC4(CF)CC4)cc32)n1 [Example 177] | 12.2
